Results: US20230250478A1, “DIAGNOSIS AND TREATMENT OF CHRONIC DIABETIC COMPLICATIONS USING LONG NONCODING RNAS AS TARGETS” (THE UNIVERSITY OF WESTERN ONTARIO, priority 2020, published 2023)

How the values were obtained:
Type in all cases: cell-based, human
[1] = tested on: HRECs; test: DZNep pre-treatment of HRECs, RT-qPCR
Procedure: (§1) Following the concentrations documented in previous studies, DZNep (Cayman Chemical, Ann Arbor, Mich., USA; 5 μM), 5-aza-dC (Sigma, St. Louis, USA; 5 μM) or 2-DG (Sigma; 0.6 mM and 5 mM) pre-treatment was applied to HRECs for 1 hour prior to the addition of D-glucose (22,27,55,58). DZNep, 5-aza-dC or 2-DG-treated HRECs and their respective controls were collected at 48 hours for further analyses.
(§2) As extensively described by us (22,27,33,55-57), total RNA was extracted using the TRIzol reagent (Invitrogen). Once total RNA was obtained, a spectrophotometer (260 nm; Gene Quant, Pharmacia Biotech, USA) was used to quantify RNA concentrations in which 1-2 μg of total RNA was reverse transcribed to complementary DNA (cDNA) using a high-capacity cDNA reverse-transcription kit (Applied Biosystems/Thermo Fisher Scientific). cDNA was then amplified in the LightCycler 96 System (Roche Diagnostics, Laval, QC, CAN) using the SYBR-green master mix (Takara Bio, Mountain View, Calif., USA) and specific primers for the genes of interest (Sigma; Tables 1-2). RT-qPCR results were analyzed using the LightCycler 96 SW 1.1 software (Roche) and expression levels were calculated by the relative standard curve method using β-actin as an internal control for sample normalization.

[2] = tested on: HOTAIR; test: siRNA-mediated knockdown of HOTAIR in HRECs, RT-qPCR; conditions: for reduction of HOTAIR RNA levels: HG-cultured HRECs, 48 hours, compared to SCR HG controls; for transcript levels of VEGF-A, ET-1 and ANGPTL4: custom double-stranded siRNAs, HRECs, HG
Procedure: Human retinal microvascular endothelial cells (HRECs; Cell Systems, Kirkland, Wash., USA; catalog number ACBRI 181), mouse retinal microvascular endothelial cells (MRECs; Applied Biological Materials Inc., Richmond, BC, CAN), and primary lung endothelial cells (MLECs) from C57BL/6J mice were cultured in endothelial basal media-2 (EBM-2, Lonza, Walkersville, Md., USA) containing endothelial growth media-2 (EGM-2) SingleQuots (Lonza). All cells were grown in 75 cm^2 culture flasks and maintained in a humidified incubator containing 5% CO2 at 37° C. As described previously (22,55,56), in order to reduce variability for experimentation, cells were used between passages three and six and the cellular densities were determined accordingly based on the type of culture plates used for each experiment. Generally, once 80% confluence was obtained post-seeding, ECs were cultured in serum and growth factor-free medium overnight before exposure to different D-glucose levels (final glucose concentrations of 5 mmol/L, mimicking normoglycemia [NG], and 25 mmol/L, mimicking hyperglycemia [HG]) for various durations; the selected glucose levels are based on a large volume of previous experiments (22,27,33,55-57). All in vitro or ex vivo experiments were independently repeated at least three times and performed with six replicates, unless specified.
HRECs were transfected using scrambled siRNAs (ID number: AM4635 [SCR], Thermo Fisher Scientific) or pre-designed siRNAs targeting human HOTAIR (ID: n272221 [si1-HOTAIR], Thermo Fisher Scientific; n272222 [si2-HOTAIR], Thermo Fisher Scientific; R-187951-00-0005 [SMARTpool siHOTAIR], Horizon Discovery; Table 6, top panel), EZH2 (ID: M-004218-03-0005 [SMARTpool si-EZH2], Horizon Discovery), CTCF (ID: M-020165-02-0005 [SMARTpool siCTCF], Horizon Discovery), DNMT1 (ID: s4216 [siDNMT1], Thermo Fisher Scientific) or mouse Hotair (ID: R-173526-00-0005 [SMARTpool siHOTAIR], Horizon Discovery, Table 6, bottom panel) using Lipofectamine 2000 (Invitrogen, Burlington, ON, Canada) and Opti-MEM reduced serum media (Thermo Fisher Scientific). As documented previously by us (22,27,33,55-57), cells were transfected with 100 nM of each siRNA for 3-4 hours and subsequently recovered in complete EBM-2 overnight. Cells were then serum starved the following morning, between 18-24 hours, and then incubated with specific glucose concentrations (5 mmol/L or 25 mmol/L) for 48 hours. Knockdown of the target genes were then confirmed using RT-qPCR.
as §2

[3] = tested on: HRECs; test: Trypan blue exclusion assay; conditions: 2-DG-treated HRECs, data not shown
[4] = tested on: HRECs; test: 2-DG pre-treatment of HRECs, RT-qPCR
Procedure: as §1, §2

[5] = tested on: HRECs; test: 5-aza-dC pre-treatment of HRECs, RT-qPCR
Procedure: as §1, §2

[6] = DZNep 5 μM plus HG, 48 hours, compared to SCR HG cells
[7] = 5-aza-dC 5 μM, HRECs, compared to HG controls

Compound: Nc1nccc2c1ncn2[C@@H]1C=C(CO)[C@@H](O)[C@H]1O [DZNep, 3-Deazaneplanocin A]
- HOTAIR, VEGF-A, ANGPTL4, CTCF, PARP1, P300 and Cytochrome B transcripts ([1]; DZNep 5 μM and HG, compared to SCR HG controls): statistically significant reductions
- reduction of EED transcripts [1, 6]: ~61%
- reduction of EZH2 transcripts [1, 6]: ~72%
- reduction of SUZ12 transcripts [1, 6]: ~48%
- ET-1, MCP-1, IL-1β, HOXD3 and HOXD10 transcripts ([1]; DZNep 5 μM pre-treatment plus HG culture): significantly augmented
- HOTAIR expressions and its downstream targets ([1]; summary statement in Example 3): can reduce

Compound: siHOTAIR SB3: custom 21-nt duplex siRNA; sense CUCUAUAAUAUGCUUAUAUUA, antisense AUAUAAGCAUAUUAUAGAGUU; HOTAIR target position 1700-1722 (RNA, backbone not given here) [custom 21-nt duplex siRNA; HOTAIR target position 1700-1722]
- reduction of HOTAIR RNA levels [2]: ~57%

Compound: O=CC[C@@H](O)[C@H](O)[C@H](O)CO [2-DG, 2-deoxy-D-glucose]
- viability [3]: 45-55%
- HOXD3 and HOXD10 expressions ([4]; 5 mM 2-DG, HRECs cultured with HG, compared to HG controls): significantly upregulated
- PARP1 and P300 expressions ([4]; 5 mM 2-DG, HRECs, HG): did not induce significant reductions
- expressions of DNMT3A and DNMT3B ([4]; 5 mM of 2-DG, HRECs, HG): no differences were observed
- expressions of EZH2, SUZ12, EED and DNMT1 ([4]; 5 mM of 2-DG, HRECs, HG): significant reductions
- HG-induced expressions of HOTAIR, VEGF-A, ET-1, ANGPTL4, MCP-1, IL-1β, CTCF and Cytochrome B ([4]; 2-DG 0.6 or 5 mM, HRECs, HG 48 hours): significantly blocked

Compound: Nc1ncn([C@H]2C[C@H](O)[C@@H](CO)O2)c(=O)n1 [5-aza-dC, 5-Aza-2′-deoxycytidine]
- reduction of DNMT3A RNA levels [5, 7]: ~58%
- reduction of DNMT3B RNA levels [5, 7]: ~69%
- ANGPTL4, P300 and PARP1 expressions ([5]; 5-aza-dC-treated HRECs, HG): no significant differences
- HOTAIR, ET-1, CTCF, Cytochrome B, MCP-1, IL-1β, HOXD3 and HOXD10 transcripts ([5]; 5-aza-dC-treated HRECs, HG): significant elevations
- glucose-induced increases in VEGF-A RNA expressions ([5]; 5-aza-dC-treated HRECs, HG): significantly prevented
- HOTAIR expressions and its downstream targets ([5]; summary statement in Example 3): can reduce

Compound: siHOTAIR SB1: custom 21-nt duplex siRNA; sense CCAAAGAGUCUGAUGUUUACA, antisense UAAACAUCAGACUCUUUGGGG; HOTAIR target position 457-479 (RNA, backbone not given here) [custom 21-nt duplex siRNA; HOTAIR target position 457-479]
- reduction of HOTAIR RNA levels [2]: ~67%
- transcript levels of VEGF-A, ET-1 and ANGPTL4 [2]: greatest reductions

Compound: siHOTAIR SB4: custom 21-nt duplex siRNA; sense GUGUAUAUAUAAUAAUGUAUU, antisense UACAUUAUUAUAUAUACACAA; HOTAIR target position 2160-2182 (RNA, backbone not given here) [custom 21-nt duplex siRNA; HOTAIR target position 2160-2182]
- reduction of HOTAIR RNA levels [2]: ~32%

Compound: siHOTAIR SB2: custom 21-nt duplex siRNA; sense CAUAAACAAUAUAUCUGUUGG, antisense AACAGAUAUAUUGUUUAUGAG; HOTAIR target position 1156-1178 (RNA, backbone not given here) [custom 21-nt duplex siRNA; HOTAIR target position 1156-1178]
- reduction of HOTAIR RNA levels [2]: ~41%
- transcript levels of VEGF-A, ET-1 and ANGPTL4 [2]: greatest reductions
